Literature values in US20080102137A1, “Composition and method for etiological treatment and prevention of diseases and/or complications associated with chronic glucose metabolism destabilization” (priority 2006, published 2008).

Assays:
[1] = patients with panic disorders
[2] = 600 mg synthetic α-tocopherol daily for 14 days, diabetic individuals
[3] = system: fat cells; settings: test tube assay of fat cells
[4] = system: blood platelet; settings: blood platelet assay

O[C@H]1[C@H](O)[C@@H](O)[C@H](O)[C@@H](O)[C@H]1O [inositol]
frequency and severity of panic attacks [1]: reduction in the frequency and severity of panic attacks

Cc1c(C)c2c(c(C)c1O)CC[C@@](C)(CCC[C@H](C)CCC[C@H](C)CCCC(C)C)O2 [α-tocopherol]
biochemical marker of oxidative stress [2]: reduction in the oxidative stress marker

CN(C)C(=N)N=C(N)N [Metformin]
lowers fasting blood glucose levels (average): 25%
reduces raised plasma insulin levels (cases of metabolic syndrome): ≤ 30%
lowers postprandial blood glucose (in vivo): up to 44.5%

methylhydroxy chalcone polymer [MHCP]
increased glucose metabolism [3]: roughly 20 fold
formation of damaging oxygen radicals [4]: prevented the formation of damaging oxygen radicals
